In patent US20080175927A1, “METHOD FOR PREVENTING PLANT DISEASES” (priority 2005, published 2008):
Marks after values point to notes of the source that are not given here.

Columns and labels:
[1] = test system: gray mold rot of strawberry; assay: Paper disk method, growth inhibition by TLC-purified berberine and derivatives; assay type: cell-based, Botrytis cinerea; set-up: key: ++: strong inhibition; +: moderate inhibition; −: no inhibition; details: purified from TLC
From the text: (§1) To confirm antimicrobial activity of berberine and derivative thereof, we collected TLC bands of berberine and derivative thereof and investigated antimicrobial activity of berberine and derivative thereof against known plant pathogens using paper disk method (Ericsson, H., Hogman, C & Wickman. K. 1954, Scandinavian Journal of Clinical Laboratory Investigation 6, Suppl. 11:21-26). […] Therefore, the result of the aforementioned HPLC analysis, ^1H NMR analysis and antimicrobial activity, the active antimicrobial compound exisisting in the extract of Coptis Rhizoma, Phellodendron genus plant, Sanguniaria canadensis, and Chelidonuum majus var. asiaticum was identified as berberine or derivatives thereof.

damping-off of cucumber = assay: as above; assay type: cell-based, Pythium ultimum; set-up: key: ++: strong inhibition; +: moderate inhibition; −: no inhibition; details: purified from TLC
From the text: as §1

glomellera cingurata = assay: as above; assay type: cell-based; set-up: key: ++: strong inhibition; +: moderate inhibition; −: no inhibition; details: purified from TLC
From the text: as §1

[2] = test system: Sphaerotheca aphanis var. aphanis; assay: Preventive test against strawberry powdery mildew, disease incidence rate; assay type: in vivo; details: for PR (prevention rate): 7 days after treatment; for DIR B (disease incident rate 7 days after treatment), I: replicate I; for DIR B (disease incident rate 7 days after treatment), II: replicate II; for DIR B (disease incident rate 7 days after treatment), III: replicate III
Method: To measure prevention effect against powdery mildew of extract of Coptis Rhizoma, Phellodendron amurense, Sanguniaria canadensis and Chelidonuum majus var. asiaticum and berberine and its derivative, we performed a preventive test agaist strawberry powdery mildew resulted from infection of Sphaerotheca aphanis var. aphanis using the standard extract obtained by Example 1 or berberine and derivative thereof. The above extract (30 mL) obtained from 10 g of fresh plant materials was dissolved in 200 μg/ml of Tween 20 solution. Final concentration of berberine and derivatives thereof was 400 μg/ml. Negative control was prepared by adding 250 μg/ml of Tween 20 in distilled water. As a positive control reagent, 30% solution of Rifzol wettable powder (Rifzol W P, Aventis Corp Science, Korea) is used and the Rifzol solution was diluted 1:4000 and treated with amount of 75 μg/ml which is common packing concentration.
In house condition of sandy-loamy soil, disease incidence rate was determined 7 days after treatment of the above mentioned reagents compared to one of non-treatment control and the test was repeated 3 times by randomized Block Design.
Before treatment of the reagents, the disease incidence rate of strawberry powdery mildew was 34.1%. The disease incidence rate is defined as percentage of disease developed plants among total investigated plants.
We investigated preventive effects of standard forms of berberine chloride, berberine iodide and berberine bromide and the standard extract obtained by Example 1 against strawberry powdery mildew at various concentrations according to the method of Example 4. […] When the freeze-dried standard extract obtained by Example 1 was used at concentration of at least 1 μg/ml or preferably 10 μg/ml, it prevented strawberry powdery mildew resulted from an infection of Sphaerotheca aphanis var. aphanis. From the above effect, the present inventors confirmed that the standard extract could substitute for synthetic chemical pesticides.

[3] = extracts 30 mL from 10 g plant, berberine salts 400 μg/ml, Rifzol 75 μg/ml
[4] = mean of I-III, extracts 30 mL from 10 g plant, berberine salts 400 μg/ml, Rifzol 75 μg/ml, negative control 19.0

In the case of `COc1ccc2cc3[n+](cc2c1OC)CCc1cc2c(cc1-3)OCO2.[Br-]` [berberine bromine, berberine bromide], the “Growth inhibition, gray mold rot of strawberry” value (shortened to “Growth inhibition, gray mold rot”) [1] is reported as “+”, the “Growth inhibition, damping-off of cucumber” value (damping-off of cucumber) is reported as “+” and the “Growth inhibition, glomellera cingurata” value (glomellera cingurata) is reported as “+”. The “PR (prevention rate)” value ([2]; 1 μg/ml) was 12.5%, the “DIR B (disease incident rate 7 days after treatment), MV (mean value)” value (from here on “DIR B … (mean value)”) ([2]; 1 μg/ml, control 35.3) was 30.9% and the “DIR B (disease incident rate 7 days after treatment), I” value ([2]; 1 μg/ml) was 29.6%. For the same compound, the “DIR B (disease incident rate 7 days after treatment), II” value ([2]; 1 μg/ml) was 27.6%, the “DIR B (disease incident rate 7 days after treatment), III” value (“DIR B … III” for short) ([2]; 1 μg/ml) was 35.4% and the “PR (prevention rate)” value ([2]; 10 μg/ml) was 47.3%. For the same compound, the “DIR B … (mean value)” value ([2]; 10 μg/ml, control 35.3) was 18.6%, the “DIR B (disease incident rate 7 days after treatment), I” value ([2]; 10 μg/ml) was 13.5% and the “DIR B (disease incident rate 7 days after treatment), II” value ([2]; 10 μg/ml) was 17.6%. The “DIR B … III” value ([2]; 10 μg/ml) was 24.8%, the “PR (prevention rate)” value ([2]; 100 μg/ml) was 61.5% and the “DIR B … (mean value)” value ([2]; 100 μg/ml, control 35.3) was 13.6%. The “DIR B (disease incident rate 7 days after treatment), I” value ([2]; 100 μg/ml) was 13.2%, the “DIR B (disease incident rate 7 days after treatment), II” value ([2]; 100 μg/ml) was 11.7% and the “DIR B … III” value ([2]; 100 μg/ml) was 15.8%. The “PR (prevention rate)” value ([2]; 300 μg/ml) was 71.7%, the “DIR B … (mean value)” value ([2]; 300 μg/ml, control 35.3) was 10.0% and the “DIR B (disease incident rate 7 days after treatment), I” value ([2]; 300 μg/ml) was 8.9%. For the same compound, the “DIR B (disease incident rate 7 days after treatment), II” value ([2]; 300 μg/ml) was 12.9%, the “DIR B … III” value ([2]; 300 μg/ml) was 8.3% and the “PR (prevention rate)” value ([2]; 1000 μg/ml) was 78.8%. The “DIR B … (mean value)” value ([2]; 1000 μg/ml, control 35.3) was 7.5%, the “DIR B (disease incident rate 7 days after treatment), I” value ([2]; 1000 μg/ml) was 5.9% and the “DIR B (disease incident rate 7 days after treatment), II” value ([2]; 1000 μg/ml) was 9.4%. For the same compound, the “DIR B … III” value ([2]; 1000 μg/ml) was 7.2%, the “PR (prevention rate)” value [2, 3] was 66.8% and the “DIR B … (mean value)” value [2, 4] was 6.3%. The “DIR B (disease incident rate 7 days after treatment), I” value [2, 3] was 5.2%, the “DIR B (disease incident rate 7 days after treatment), II” value [2, 3] was 6.1% and the “DIR B … III” value [2, 3] was 6.1%.

For `COc1ccc2cc3[n+](cc2c1OC)CCc1cc2c(cc1-3)OCO2` [berberine chloride], the “Growth inhibition, gray mold rot” value [1] was “+”, the “Growth inhibition, damping-off of cucumber” value (damping-off of cucumber) was “++” and the “Growth inhibition, glomellera cingurata” value (glomellera cingurata) was “++”. The “PR (prevention rate)” value ([2]; 1 μg/ml) was 12.2%, the “DIR B … (mean value)” value ([2]; 1 μg/ml, control 35.3) was 31.0% and the “DIR B (disease incident rate 7 days after treatment), I” value ([2]; 1 μg/ml) was 30.2%. The “DIR B (disease incident rate 7 days after treatment), II” value ([2]; 1 μg/ml) was 30.8%, the “DIR B … III” value ([2]; 1 μg/ml) was 32.1% and the “PR (prevention rate)” value ([2]; 10 μg/ml) was 38.2%. The “DIR B … (mean value)” value ([2]; 10 μg/ml, control 35.3) was 21.8%, the “DIR B (disease incident rate 7 days after treatment), I” value ([2]; 10 μg/ml) was 23.4% and the “DIR B (disease incident rate 7 days after treatment), II” value ([2]; 10 μg/ml) was 22.1%. For the same compound, the “DIR B … III” value ([2]; 10 μg/ml) was 19.9%, the “PR (prevention rate)” value ([2]; 100 μg/ml) was 73.7% and the “DIR B … (mean value)” value ([2]; 100 μg/ml, control 35.3) was 9.3%. For the same compound, the “DIR B (disease incident rate 7 days after treatment), I” value ([2]; 100 μg/ml) was 8.2%, the “DIR B (disease incident rate 7 days after treatment), II” value ([2]; 100 μg/ml) was 7.7% and the “DIR B … III” value ([2]; 100 μg/ml) was 12.1%. The “PR (prevention rate)” value ([2]; 300 μg/ml) was 77.3%, the “DIR B … (mean value)” value ([2]; 300 μg/ml, control 35.3) was 8.0% and the “DIR B (disease incident rate 7 days after treatment), I” value ([2]; 300 μg/ml) was 5.2%. For the same compound, the “DIR B (disease incident rate 7 days after treatment), II” value ([2]; 300 μg/ml) was 8.5%, the “DIR B … III” value ([2]; 300 μg/ml) was 10.3% and the “PR (prevention rate)” value ([2]; 1000 μg/ml) was 84.7%. For the same compound, the “DIR B … (mean value)” value ([2]; 1000 μg/ml, control 35.3) was 5.4%, the “DIR B (disease incident rate 7 days after treatment), I” value ([2]; 1000 μg/ml) was 3.4% and the “DIR B (disease incident rate 7 days after treatment), II” value ([2]; 1000 μg/ml) was 8.7%. For the same compound, the “DIR B … III” value ([2]; 1000 μg/ml) was 4.2%, the “PR (prevention rate)” value [2, 3] was 69.5^c % and the “DIR B … (mean value)” value [2, 4] was 5.8%. For the same compound, the “DIR B (disease incident rate 7 days after treatment), I” value [2, 3] was 5.9%, the “DIR B (disease incident rate 7 days after treatment), II” value [2, 3] was 5.1% and the “DIR B … III” value [2, 3] was 5.1%.

With `COc1ccc2cc3[n+](cc2c1OC)CCc1cc2c(cc1-3)OCO2.[I-]` [berberine iodide] the “Growth inhibition, gray mold rot” value [1] was “+”, the “Growth inhibition, damping-off of cucumber” value (damping-off of cucumber) was “+” and the “Growth inhibition, glomellera cingurata” value (glomellera cingurata) was “+”. For the same compound, the “PR (prevention rate)” value ([2]; 1 μg/ml) was 9.9%, the “DIR B … (mean value)” value ([2]; 1 μg/ml, control 35.3) was 31.8% and the “DIR B (disease incident rate 7 days after treatment), I” value ([2]; 1 μg/ml) was 30.2%. For the same compound, the “DIR B (disease incident rate 7 days after treatment), II” value ([2]; 1 μg/ml) was 29.5%, the “DIR B … III” value ([2]; 1 μg/ml) was 35.8% and the “PR (prevention rate)” value ([2]; 10 μg/ml) was 35.4%. The “DIR B … (mean value)” value ([2]; 10 μg/ml, control 35.3) was 22.8%, the “DIR B (disease incident rate 7 days after treatment), I” value ([2]; 10 μg/ml) was 25.8% and the “DIR B (disease incident rate 7 days after treatment), II” value ([2]; 10 μg/ml) was 23.1%. The “DIR B … III” value ([2]; 10 μg/ml) was 19.6%, the “PR (prevention rate)” value ([2]; 100 μg/ml) was 73.1% and the “DIR B … (mean value)” value ([2]; 100 μg/ml, control 35.3) was 9.5%. The “DIR B (disease incident rate 7 days after treatment), I” value ([2]; 100 μg/ml) was 10.2%, the “DIR B (disease incident rate 7 days after treatment), II” value ([2]; 100 μg/ml) was 8.9% and the “DIR B … III” value ([2]; 100 μg/ml) was 9.3%. The “PR (prevention rate)” value ([2]; 300 μg/ml) was 78.8%, the “DIR B … (mean value)” value ([2]; 300 μg/ml, control 35.3) was 7.5% and the “DIR B (disease incident rate 7 days after treatment), I” value ([2]; 300 μg/ml) was 6.2%. For the same compound, the “DIR B (disease incident rate 7 days after treatment), II” value ([2]; 300 μg/ml) was 7.9%, the “DIR B … III” value ([2]; 300 μg/ml) was 8.4% and the “PR (prevention rate)” value ([2]; 1000 μg/ml) was 82.2%. For the same compound, the “DIR B … (mean value)” value ([2]; 1000 μg/ml, control 35.3) was 6.3%, the “DIR B (disease incident rate 7 days after treatment), I” value ([2]; 1000 μg/ml) was 4.3% and the “DIR B (disease incident rate 7 days after treatment), II” value ([2]; 1000 μg/ml) was 9.3%. The “DIR B … III” value ([2]; 1000 μg/ml) was 5.2%, the “PR (prevention rate)” value [2, 3] was 63.2% and the “DIR B … (mean value)” value [2, 4] was 7.0%. The “DIR B (disease incident rate 7 days after treatment), I” value [2, 3] was 7.1%, the “DIR B (disease incident rate 7 days after treatment), II” value [2, 3] was 6.6% and the “DIR B … III” value [2, 3] was 6.6%.
